SMILES strings stand for the structures.

`Cn1ncc(C(=O)N2CCS(=O)(=O)CC2)c1C(=O)Nc1ccn2nc(-c3ccccc3)nc2c1` returned a melting point greater than 250 °C.

The compound `CONC(=O)c1cc2c(Sc3ccc(C)cc3)cncc2s1` returned a melting point of 200 to 203 °C.

`CCOC(=O)c1ccc(-c2ccc(OC)c3c2OCCO3)cc1` yielded a melting point of 141 to 142 °C.

Compound `COc1ccc([C@H](C)NC(=O)c2cccnc2Oc2ccc(F)cc2)cc1` gave a melting point of 97 to 99 °C.

As for `CCCN1CC[C@@H]2CC(=O)c3cc(F)ccc3[C@@H]2C1` (relative stereo), the melting point is greater than 220 °C.

For `CCCCOC(=O)C(=O)c1cc(-c2ccc(S(C)(=O)=O)cc2)n(-c2ccccc2)c1C`, the melting point came out at 100 °C.

Turning to `NCc1cc2c(Oc3ccc(Cl)cc3)cncc2s1`, the melting point lay within 78.6 to 79.8 °C.

On to `O=C1CCC(N2Cc3c(OCC4Cc5ccccc5O4)cccc3C2=O)C(=O)N1` (stereo unspecified), for which the melting point fell in the range of 258 to 260 °C.

`CCn1c2s[nH]c(=O)c2c(=O)c2cc(F)c(N3CCN(c4ncccn4)CC3)c(OC(F)F)c21` gave a melting point of 259 to 262 °C.

`CCCCCCC(C)NC1=NS(=O)(=O)c2sc(Cl)cc2N1` (stereo unspecified) gave a melting point of 179 to 181 °C.

As for `CC1(C)c2cc(OS(C)(=O)=O)ccc2OC1OC(=O)c1ccccc1` (stereo unspecified), the melting point lay within 102 to 104 °C.

The compound `CC(=O)Nc1ccc(Oc2ncc(Cl)cn2)cc1` had a melting point of 202 °C.

`CS(=O)(=O)N1CCC(Nc2ncc(C(=O)c3ccccc3)c(N)n2)CC1`: the melting point fell in the range of 249 to 250 °C.

On to `CCCn1c(=O)c2c(nc(/C=C/c3ccc4c(c3)OCO4)n2C)n(CCC)c1=O`, for which the melting point lay within 152 to 155 °C.

Take `O=C1C2=C(C=C3OCCC13)CCCO2` (stereo unspecified): the melting point came to 101 °C.

`CC(C)(C)NC(=O)[C@@H]1[C@@H](Cl)CCN1C(=O)[C@@H](O)[C@H](Cc1ccccc1)NC(=O)[C@H](CC(N)=O)NC(=O)OCc1ccccc1` came in with a melting point of 102 to 104 °C.

`COc1ccccc1-c1ccc(C[C@H](NC(=O)c2c(Cl)cccc2Cl)C(=O)O)cc1OC` returned a melting point of 100 to 102 °C.

`O=C(N[C@@H]1C=CC[C@H]1O)OCC(Cl)(Cl)Cl` displayed a melting point of 82 to 84 °C.

For `O=C(NCc1ccccc1)NOCC(O)CN1CCCCC1` (stereo unspecified), the melting point lay within 100 to 101 °C.

Consider `O[C@@H]1[C@H](O)[C@H](O)CO[C@H]1n1c(Br)nc2c(F)c(Cl)c(Cl)cc21`, for which the melting point came out at 165 °C.

`COC(=O)CCCCNC(=O)C[C@H]1O[C@H](c2cccc(OC)c2OC)c2cc(Cl)ccc2N(CC(C)(C)CO)C1=O` came in with a melting point of 84 to 85 °C.

`CNc1nc2ccccc2cc1N` returned a melting point of 133 to 136 °C.

The compound `O=C(O)CCC(=NO)c1ccc(-c2ccc(Br)cc2F)cc1` gave a melting point of 163 to 164 °C.

`Cc1ccc(-c2coc3c(O)c(O)ccc3c2=O)cc1` returned a melting point of 225 °C.

`COc1cc(C)cc(-c2n[nH]cc2-c2cc(NC[C@H](C)O)nc(Cl)n2)c1` gave a melting point of 256 °C.

For `CC#CCOc1ccc(S(=O)(=O)NCCC(=O)OC(C)(C)C)cc1`, the melting point was 63 to 65 °C.

On to `N#CC(=CNC1CC1)C(=O)c1cc(F)c(Cl)cc1Cl`, for which the melting point lay within 94 to 95 °C.

For `CCOC(=O)C1=C(C)NC(C)=C([N+](=O)[O-])C1c1cccnc1` (stereo unspecified), the melting point is 264 °C.

Turning to `OCc1ccc2cccc3c2c1-c1ccccc1-3`, the melting point lay within 147 to 185 °C.

In the case of `COc1ccc(NN=C(Sc2ccccc2C)C(C)=O)cc1`, the melting point was in the range of 112 to 114 °C.

`CC(C)n1c(S(=O)(=O)c2ccc(O)cc2)nc2ccccc21` came in with a melting point of 198 °C.

As for `CCn1c(COCc2ccccc2)nc(C(C)C)c1Sc1cccc(Cl)c1`, the melting point was 99 to 100 °C.

`O=C1c2ccccc2C(=O)N1CCN1CCC(c2noc3cc(F)ccc23)CC1` gave a melting point of 143 to 145 °C.

For `CC(=O)NCC1CN(c2ccc(N3CCC(C4NN=C(N)S4)CC3)c(F)c2)C(=O)O1` (stereo unspecified), the melting point fell in the range of 168 to 169 °C.

`CCOC(=O)COc1c(C)cc(C)c2c1CCC2=O` yielded a melting point of 75 to 77 °C.

In turn, `CCOC(=O)c1cc(C(=O)c2cccc(S(=O)(=O)F)c2)sc1NC(=O)OCC(Cl)(Cl)Cl` came in with a melting point of 108 to 110 °C.

For the compound `COc1ccc(Cl)c(Oc2c(CCl)nc(N3CCOCC3)nc2NS(=O)(=O)c2ccc(C(C)(C)C)cc2)c1`, the melting point was 155 to 156 °C.

As to `O=C(O)c1ncn(Cc2ccc(Cl)c(Cl)c2)c1C(=O)O`, the melting point came to 258 °C.

In the case of `COC[C@H](C1CC1)n1cc(Br)nc(Br)c1=O`, the melting point fell in the range of 98.5 to 100 °C.

In turn, `CN1C(=O)C(C)(C)C(=O)N(C)c2ccccc21` came in with a melting point of 159 to 160 °C.

`O=C(NCc1ccccc1Cl)c1ccccc1CN1C(=O)C2(COc3cc4c(cc32)CCO4)c2ccccc21` (stereo unspecified) registered a melting point of 148 to 150 °C.

In turn, `O=C(O)CCCCCNC(=O)C(CS)Cc1ccccc1` (stereo unspecified) came in with a melting point of 58 to 60 °C.

As to `Cc1cc(-c2cnn3c(C(F)F)cc(-c4ccc(C(F)(F)F)c(C)c4)nc23)ccn1`, the melting point amounted to 221 °C.

Compound `CC(=O)NC(=N)N(C)C1CCN(c2nc3ccccc3n2Cc2ccc(F)cc2)CC1` displayed a melting point of 192 °C.

The compound `CCc1ccc(NC(=O)N[C@H]2C[C@H](C(=O)O)Nc3cc(Cl)cc(Cl)c32)cc1` (relative stereo) returned a melting point of 195 to 197 °C.

For the compound `CCOC(=O)c1ccc2ncccc2c1`, the melting point lay in the range of 66 to 67 °C.

With `CN(C)Cc1ccc(-c2cc3onc(-c4ccccc4)c3c(=O)n2C)cc1`, the melting point lay within 159 to 161 °C.

In turn, `CS(=O)(=O)OCCCn1cc(C2=C(c3ccccc3[N+](=O)[O-])C(=O)NC2=O)c2ccccc21` had a melting point of 177 to 178 °C.

On to `O=C(OCc1ccccc1)N1CCN(c2ccc(-c3ccnc(Cl)n3)cn2)CC1`, for which the melting point lay within 145 to 147 °C.

`Nc1nnc(-c2cccc(Oc3cccc(COc4ccc(Cl)c(Cl)c4)c3)c2)s1` gave a melting point of 128 to 130 °C.

In the case of `CN(C)S(=O)(=O)c1cc2c(O)cccc2o1`, the melting point is 150 to 153 °C.

In the case of `CC1OC(C)(C)c2cc(-c3ccc(C#N)n3C)ccc2N1C(=O)OCC1c2ccccc2-c2ccccc21` (stereo unspecified), the melting point is 63 to 64 °C.

As for `CCOC(=O)C(=CNc1nccs1)C(=O)c1ccc(Cl)nc1Cl`, the melting point fell in the range of 119 to 122 °C.

`O=C(O)CN1C(=O)C(=Cc2ccc(Cl)cc2)SC1=S` showed a melting point of 272 to 274 °C.

The compound `FC(F)Sc1ccc(-n2cnnn2)cc1` came in with a melting point of 94 to 97 °C.

`Cc1cccc(C2SC3(CCN(C(=O)Oc4ccccc4)CC3)c3ccccc32)c1` (stereo unspecified): the melting point lay within 154 to 157 °C.

`CCOc1cc(OCC)cc(-c2c(Cl)ncn2-c2ccc(S(C)(=O)=O)cc2)c1` registered a melting point of 227 to 231 °C.

Turning to `CC(C)c1cccc(S(=O)(=O)n2c(Cc3ccc(C(=O)O)cc3)cc3cc(C(F)(F)F)ccc32)c1`, the melting point was 175 °C.

In the case of `Cc1cc(Cl)ccc1N=c1scc(-c2ccc(Cl)c(S(=O)(=O)N(C)C)c2)n1C`, the melting point was 137 to 141 °C.

In turn, `CC(C)(C)COc1ccc(N)cc1C#N` yielded a melting point of 55 to 56 °C.

For the compound `CC(C)c1cc(C=Cc2ccccc2O)on1`, the melting point was 129 to 133 °C.

On to `Cn1nc(-c2c(NCc3ccccc3)nc(N)nc2-c2ccccc2)ccc1=O`, for which the melting point was greater than 250 °C.

Take `O=C1C(=O)c2ccccc2C2=C1SCC1(CCN(C(=O)c3ccc(-n4cccn4)cc3)CC1)O2`: the melting point fell in the range of 299 to 300 °C.

`COC(=O)CCc1nc(-c2cccc(NC(=O)OC(C)(C)C)c2)no1` gave a melting point of 90 to 91 °C.

On to `COc1cccc(CN=Cc2cccc(O)c2)c1`, for which the melting point came to 103 °C.

In turn, `O=C(CCSc1ccc2ccccc2c1)c1ccccc1` had a melting point of 90 to 91 °C.

Compound `CC(=O)N1CCn2nc(Nc3cc(-c4ccc5c(c4)NC(=O)C5)cn4ccnc34)cc2C1` had a melting point of 161 to 165 °C.

`Cn1cc(C2=C(c3c4n(c5ccccc35)CCN(C(=S)n3ccnc3)C4)C(=O)NC2=O)c2ccccc21` gave a melting point of 244 to 247 °C.

As for `COC(=O)c1nc(N=[N+]=[N-])ccc1OCc1ccccc1`, the melting point was 88 to 89 °C.

`Nc1ncnc2c1ncn2Cc1oc2ccccc2c(=O)c1-c1ccc(F)cc1`: the melting point was in the range of 212 to 216 °C.

`Clc1nccnc1Oc1ccc(Oc2ccccc2)cc1` returned a melting point of 53 to 55 °C.

The compound `CNC1CN(c2nc3c(cc2F)c(=O)c(C(=O)O)cn3C2CC2)C1` registered a melting point of 206 to 212 °C.

`O=S1(=O)CNc2cccc3cccc1c23`: the melting point lay in the range of 206 to 207 °C.

As for `O=C1CCc2c(-c3ccncc3)sc(-c3ccncc3)c21`, the melting point lay within 168 to 170 °C.

The compound `CNC(=O)CC1CN=C(c2cc3cc(Oc4ccc(S(C)(=O)=O)nc4)ccc3[nH]2)S1` (stereo unspecified) had a melting point of 178 to 180 °C.

With `CC(C)C[C@@H](C(=O)N1CCN(C(c2ccc(F)cc2)c2ccc(F)cc2)CC1)N(Cc1ccc(OC(C)(C)C)cc1)Cc1ccc(OC(C)(C)C)cc1`, the melting point was 62 to 67 °C.

Turning to `COCCCN1C(=O)CC(=O)Nc2ccccc21`, the melting point lay in the range of 137 to 138 °C.

As for `CC(=O)N(C)C(=O)ON=C1SCC(=O)NC1(C)C`, the melting point lay in the range of 218 to 220 °C.

For `CCOC(=O)C1=C(C)NC(C)=C(C(=O)OC)C1c1ccccc1Br` (stereo unspecified), the melting point is 134 to 136 °C.

Regarding `O=C(NO)c1ccc(CNC(=O)c2[nH]c(-c3ccccc3)cc2-c2ccc(Br)cc2)cc1`, the melting point was in the range of 174 to 176 °C.

The compound `O=C1CCCC2=C1C(c1ccc(Cl)cc1)C1=C(CCCC1)N2` (stereo unspecified) had a melting point of 253 to 254 °C.

Compound `COc1ccc(-c2nc(C(=O)NC3CCN(Cc4ccccc4)CC3)sc2-c2ccc(OC)cc2)cc1` displayed a melting point of 130 to 131 °C.

`CCCC[C@H](NC(=O)[C@H](CC(C)C)NC(=O)c1c(F)cccc1F)C(=O)CSCc1ccco1` had a melting point of 116 °C.

For the compound `COc1ccc(Cl)cc1CCC(=O)O`, the melting point lay within 91 to 92 °C.

`O=C(C=Cc1ccc(NC(=O)c2ccc3ccccc3c2)cc1)NO`: the melting point lay in the range of 231 to 233 °C.

With `Cc1cc2c(-c3ccc(Br)cc3)c(CC(=O)Nc3ccc(F)cc3C(F)(F)F)c(=O)oc2cc1Cl`, the melting point lay in the range of 262 to 264 °C.

The values are drawn from a melting point compilation (Tetko et al.; mined from patent text by program, amines drawn as free bases though some values may be those of a salt).
